# Legend:
# [1] = molecular target: HLA-DRB1*0401 (Homo sapiens, UniProt P01903+P01911, A100K/A169T/F76Y/I96L/K127E/L162R/M171V/N62H/P40V/Q125Y/R42H/S133A/S149N/S66Y/V115G/V209L/W38E); assay: Peptide-MHCII competition binding assay; details: competition ELISA, pH 5.9, peptide 90.000nM – 0.9nM, HLA-DRB1 30 nM, biotinylated peptide 15nM, duplicate wells; ratios below 10 = good binding; reference peptide […]
# [2] = molecular target: HLA-DRB1*0301 (Homo sapiens, UniProt P01903+P01911, A100K/A102G/A103R/A169T/F55Y/I96L/K41T/L162R/M171V/P40S/Q125H/Q178H/Q39Y/R42S/S66N/T106N/T262R/W38E/Y61H); assay: Peptide-MHCII competition binding assay; details: competition ELISA, pH 5.9, peptide 90.000nM – 0.9nM, HLA-DRB1 30 nM, biotinylated peptide 15nM, duplicate wells; ratios below 10 = good binding; reference peptide SFLLTDLINRRTPRVDGQ
# [3] = tested on: CD4 T cells from healthy donors; assay: HLA restriction and FVIII specificity IFN-γ ELISPOT of T cell lines raised with the pool of 18 peptides (four donors); assay type: cell-based, human; parameters: key to Protein specificty: +: positive T cell responses to both the full-length FVIII protein (protein specificity); details: for intensity (%): four donors, 87 specific T cell lines in total; for Responding donors (%): four healthy donors, T cell lines amplified with pool of 18 FVIII peptides; for HLA restriction (%) DP / HLA restriction (%) DR: percentage of restricted T cell lines, inhibition higher than 50% of ELISPOT count; for HLA restriction (%) DP: anti-HLA-DP (B7/21) 10 μg/ml; for HLA restriction (%) DR: anti-HLA-DR (L243) 10 μg/ml; for Protein specificty: recognition of rFVIII loaded on autologous DCs by peptide-specific T cell lines
# Procedure: T cells were incubated with autologous DCs alone (control) or with DCs incubated with rFVIII (0.2 µM), ovalbumin (3 µM), and KLH (1 µM) or PBMCs for FVIII peptides (10 µg/ml) in MultiScreen 96-well plates (Merck Millipore) previously coated with 2.5 µg/mL of anti-human IFN-γ monoclonal antibody (mAb; 1-D1K; Mabtech). The T cell lines and APCs were plated at equal number for both stimulated and unstimulated control conditions. […] The spot number was determined by using the ELISPOT Reader System (Autoimmun Diagnostika, Ebinger, Germany). HLA restriction was assessed using monoclonal antibodies (10 μg/ml) specific to HLA-DP (B7/21), HLA-DQ (SPVL3), or HLA-DR (L243).
# Based on the T cell epitope prediction software NetMHCpan4.0 ([23]), we selected 63 20-mer peptides that are predicted for their ability to bind promiscuously, with a percentile score below 10%, at least four HLA class II molecules from a selection of 15 preponderant HLA-DR alleles in our panel (as shown in ST1). The predicted peptides spread all along the full-length FVIII sequence and account for more than 50% of its amino acid coverage. A total of 16 healthy donors with unrelated HLA typing (ST2) were used as sources of T cells to identify FVIII-specific CD4 T cell epitopes. Specific T cell lines were generated by in vitro T cell culture using FVIII and KLH. The peptide specificity of the T cell lines raised against FVIII was assessed by two independent IFN-γ ELISPOT using peptide pools and individual peptides. All donors responded to rFVIII with a total of 409 identified rFVIII-specific T cell lines (Figure 4A). The mean of CD4 T cell precursors was 6.5 cells/M (Figure 4B). Each of the 63 FVIII peptides induced a T cell response in at least one of the donors tested, among the 16 healthy donors tested, with 872 peptide-specific T cell lines identified (Figure 4C). The CD4 T cell epitopes identified were ranked based on their donor coverage capacity (Figure 4D) and response intensity (Figure 4E). Furthermore, 18 out of 63 FVIII T cell epitopes were responsible for 50% of the total T cell response and 100% of the donor coverage. These immunoprevalent epitopes are located in the A1, A3, C1, and C2 domains of the FVIII protein (ST3). Furthermore, four independent healthy donors were used as sources of T cells to characterize the HLA restriction and to assess the reactivity of T cell lines generated with the 18 peptides toward rFVIII. T cell lines were amplified in vitro for 28 days through stimulation with the pool of 18 peptides and then tested through IFN-γ ELISPOT. All four healthy donors tested responded to the pool of 18 FVIII peptides selected, with a total of 87 specific T cell lines identified. Moreover, 16 out of 18 FVIII peptides in the pool generated a specific T cell response among the four donors. A total of 14 of the T cell peptides were tested for recognition of rFVIII-loaded on autologous DCs, and it was confirmed that they were part of the naturally processed FVIII peptides. HLA restriction was assessed by introducing anti-HLA-DR, anti-HLA-DP, and anti-HLA-DQ antibodies. None of the peptides tested was HLA-DQ restricted. Eight peptides were exclusively HLA-DR-restricted, one peptide was HLA-DP, and seven were promiscuously presented on both HLA-DR and HLA-DP molecules (ST4). […] Furthermore, the 18 FVIII peptides selected were ulteriorly tested in an in vitro binding assay to six HLA-DRB1 molecules (as described in ST5).
# Four healthy donors were used as the source of CD4 T cells, which were amplified in vitro with the pool of 18 FVIII peptides selected for study. In an initial IFN-γ ELISPOT assay, we screened each of the 18 peptides individually to identify any positive T cell responses to both the full-length FVIII protein (protein specificity) as well as the specific peptide inducing the response. […]
Sequence,Ratio IC50 DRB1*0401 [1],Ratio IC50 DRB1*0301 [2],intensity (%) [3],Responding donors (%) [3] [%],HLA restriction (%) DP [3] [%],HLA restriction (%) DR [3] [%],Protein specificty [3]
"ATRRYYLGAVELSWDYMQSD [P20-39, 20-mer FVIII peptide, A1 domain]",1.7,850,"4,6%",50,37,63,+
"DHLFNIAKPRPPWMGLLGPT [P75-94, 20-mer FVIII peptide, A1 domain]",27,40,"1,1%",25,100,,+
"HPQSWVHQIALRMEVLGCEA [P2328-2347, 20-mer FVIII peptide, C2 domain]",1240,0.0,"1,1%",25,,100,+
"INGYIMDTLPGLVMAQDQRI [P1940-1959, 20-mer FVIII peptide, A3 domain]",0.1,,"1,1%",25,,100,
"KARLHLQGRSNAWRPQVNNP [P2226-2245, 20-mer FVIII peptide, C2 domain]",3,33,"12,6%",50,23,77,+
"KEPFSWIKVDLLAPMIIHGI [P2084-2103, 20-mer FVIII peptide, C1 domain]",1.9,6.6,"19,5%",100,47,53,+
"KKEEYKMALYNLYPGVFETV [P1986-2005, 20-mer FVIII peptide, A3 domain]",622.5,,"1,1%",25,,100,+
"KLARLHYSGSINAWSTKEPF [P2068-2087, 20-mer FVIII peptide, C1 domain]",0.2,,"1,1%",25,,100,
"LGQFLLFCHISSHQHDGMEA [P322-341, 20-mer FVIII peptide, A1 domain]",,,"4,6%",50,,100,+
"LLTRYLRIHPQSWVHQIALR [P2320-2339, 20-mer FVIII peptide, C2 domain]",76,114,"2,3%",25,25,75,+
"LSHVDLVKDLNSGLIGALLV [P178-197, 20-mer FVIII peptide, A1 domain]",0.05,0.05,"4,6%",75,50,50,+
PPIIARYIRLHPTHYSIRST [P2161-2180],5.6,21,"9,2%",75,19,81,+
"RHYFIAAVERLWDYGMSSSP [P1715-1734, 20-mer FVIII peptide, A3 domain]",138,,"18,4%",75,,100,+
"SLYISQFIIMYSLDGKKWQT [P2114-2133, 20-mer FVIII peptide, C1 domain]",0.6,30,"3,4%",50,33,66,+
"VHSIFLEGHTFLVRNHRQAS [P285-304, 20-mer FVIII peptide, A1 domain]",57.6,58,"3,4%",50,,100,+
"YDTVVITLKNMASHPVSLHA [P100-119, 20-mer FVIII peptide, A1 domain]",17,30,8%,50,,100,+
